These results are taken from patent US20050065064A1, “Identification of allosteric peptide agonists of CXCR4” (priority 2002, published 2005).

Series [1] concerns CCRF-CEM cells. As to the kind of experiment: Chemotaxis assay (transwell) on CCRF-CEM cells. In kind it is cell-based, human. As for the experimental part:
The CCRF-CEM acute lymphoblastic leukemia cell line was previously shown to express CXCR4 and to migrate in response to SDF-1α (31). The procedure involved cells that were ˜70-80% confluent and were centrifuged at 1000 rpm for 5 min and resuspended at a concentration of ˜10^7 cells/ml. The transwell system (Corning-Costar^R) was used for quantifying the chemotactic response. Six hundred μl of solution with different concentrations of a CXCR4 agonist were added to the bottom of the wells of 24-well culture plates. One hundred μl of the cell suspension was aliquoted in the transwell cups and inserted in the wells. The bottom of the cups is layered with a membrane that has a 5 μm pore size and allows cell movement towards the higher concentration of chemoattractant. The cells were incubated for 2h at 37° C., after which the migrated cells were collected and counted with an electronic particle counter (Coulter^R). In cases where the effect of neutralization by CXCR4 monoclonal antibodies or antagonists was examined, the inhibitor was added to the upper compartment along with the cells.

Series [2] addresses T1, CXCR4 (Homo sapiens, UniProt P61073). As to the kind of experiment: Flow cytometry of CXCR4 surface levels (12G5 indirect staining). In kind it is cell-based. As for the experimental part:
Flow cytometric analysis of cell subpopulations was performed using a FACS Vantage flow cytometer (Becton-Dickinson Immunocytometry Systems, San Jose, Calif.) for detection of CXCR4 surface expression with the 12G5 monoclonal antibody. An indirect staining protocol was used. Briefly, after a 90 min incubation with various agents, the cells were washed and resuspended in PBS. Nonspecific (Fc-mediated) binding was blocked using purified rat IgG. The primary antibody (12G5, a mouse IgG2a antibody) was added at 1 μg/ml for 45 min. After centrifugation the cells were resuspended in PBS and the secondary antibody (FITC-linked rat anti-mouse IgG2a) was added at 10 μg/ml for 45 min. The cells were fixed with 2% formaldehyde (in PBS) and used within 2 days for data acquisition. Mouse IgG2a was used as an isotype control. For the fluorescence measurements the cells were excited at 488 nm. The FITC fluorescence was collected through a 530/30 nm band pass filter. A minimum of 15,000 cells were examined for each sample. Analysis of data was performed using the CellQuest software (Becton-Dickinson).
A general note: A flow cytometer gives signals particle by particle.
Target sequence in this assay (P61073 whole entry): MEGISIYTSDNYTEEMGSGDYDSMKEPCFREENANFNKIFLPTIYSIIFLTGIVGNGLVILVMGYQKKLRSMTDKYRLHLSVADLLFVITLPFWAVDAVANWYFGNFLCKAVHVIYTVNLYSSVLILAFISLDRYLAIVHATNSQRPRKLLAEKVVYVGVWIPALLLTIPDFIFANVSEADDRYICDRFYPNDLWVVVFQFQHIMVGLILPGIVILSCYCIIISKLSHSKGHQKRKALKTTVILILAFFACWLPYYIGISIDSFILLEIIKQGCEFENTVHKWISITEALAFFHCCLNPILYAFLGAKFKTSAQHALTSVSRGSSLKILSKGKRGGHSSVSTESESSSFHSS

Series [3] has as its target T1, CXCR4. As to the kind of experiment: β-galactosidase assay in yeast expressing CXCR4 (FUS1-lacZ reporter). Type of series: cell-based. Set-up: The plasmid Cp4181 contains the CXCR4 gene under the control of the constitutive phosphoglycerate kinase (PGK1) promoter; expressed in transfected cells; host or cells: Saccharomyces cerevisiae CY12946 derivatives YAS2 / YAS3 (plasmid Cp4181). The source says:
The initial S. cerevisiae strain was CY12946 (MATα FUS1p-HIS3 GPA1Gαi2(5) canI farIΔI442 his3 leu2 sst2Δ2 ste14::trp1::LYS2 ste3Δ1156 tbt1-1 trp1 ura3) (23). Except for the specific chimeric Ga subunit expressed, CY12946 is genetically similar to CY1141, reported in Klein et al. (18), with two differences. First, the two strains express different Gα subunits. Specifically, CY12946 expresses a chimeric Gα subunit (GPA1Gαi2(5)) in which the C-terminal 5 amino acids of the yeast Ga subunit, GPA1, are replaced by the C-terminal 5 residues of Gαi2. In contrast, as described by Klein et al. (18), CY1141 expresses a chimeric Ga subunit (GPA1(41)Gαi2) in which the N-terminal 33 residues of Gαi2 are replaced by the 41 N-terminal residues of GPA1. We have used CY12946 in the current report because GPA1Gαi2(5) is more efficient than GPA1(41)Gαi2 in coupling CXCR4 to the pheromone response pathway. The use of GPA1Gαi2(5) necessitated deletion of SST2, which down-regulates the pheromone response pathway by accelerating the GTPase activity of GPA1. Thus, the second difference between CY12946 and CY1141 is the presence of an sst2 deletion allele in CY12946. All plasmids were 2μ-derived and contained a REP3 element for autonomous replication in S. cerevisiae and AmPR for selection in Escherichia coli. The plasmid Cp4181 contains the CXCR4 gene under the control of the constitutive phosphoglycerate kinase (PGK1) promoter and a LEU2 selectable marker. […] It also contains the TRP1 selectable marker. Cp6160 expresses full length wild-type SDF-1α in yeast under the control of the constitutive alcohol dehydrogenase (ADH1) promoter. The α-factor signal sequence is cloned at the 5′-end of the SDF sequence to allow secretion of the mature polypeptide. The vector also has the URA3 selectable marker allowing transformed cells to grow in media deficient in uracil. For expression of the 17-mer peptide library, Cp6293 was used. This URA3+plasmid was derived from Cp6160 and contains a frameshift in the SDF-1α sequence so that no functional protein is expressed unless an insert is appropriately cloned. The cDNA coding for 17-mer peptides was cloned using the restriction sites HindIII and Acc65I, which also results in the secretion of the mature peptide. S. cerevisiae strains YAS1, YAS2, YAS3 were constructed by transforming CY12946 with Cp1584, Cp1584/Cp4181 and Cp1584/Cp4181/Cp6160, respectively.
The liquid beta-galactosidase assays were performed essentially as described in (24) or (27) with the following modification. After growth in the appropriate medium, 5 ml of cells displaying the agonist phenotype were centrifuged (2500 rpm for 5 min) and resuspended in 0.5 ml as described (28).
To identify allosteric peptide agonists or modulators of CXCR4, it was necessary to establish an assay that could isolate molecules with the desired properties from a large peptide library. The screen that was used consisted of two steps. The first step was to isolate peptide sequences from a synthetic cDNA library that would allow cells to grow only after activation of CXCR4. A second step was required that would segregate agonists that bind to the native active site from those that bind to allosteric sites. This step involved an agonist assay in the presence of a receptor antagonist. A number of genetic modifications made to S. cerevisiae allowed it to be used for monitoring the interactions of peptides or proteins with CXCR4 (FIG. 1). […]
Target sequence in this assay (P61073 whole entry): as above

Series [4] concerns HIV-1. To be noted: in vitro; reference (58); cited from earlier work.
Series [5] addresses T1, CXCR4. Put plainly: Yeast growth / colony formation in histidine-deficient medium (FUS1-HIS3). Type of series: cell-based. Set-up: The plasmid Cp4181 contains the CXCR4 gene under the control of the constitutive phosphoglycerate kinase (PGK1) promoter; expressed in transfected cells; host or cells: Saccharomyces cerevisiae CY12946 derivatives YAS2 / YAS3 (plasmid Cp4181). As for the experimental part: All basic media were prepared essentially as described (24). In cases where plasmid selection was necessary, media that lacked uracil, leucine, or tryptophan or an appropriate combination of these nutrients were employed. Library screening was performed in plates that lacked histidine and contained 3-amino-1,2,4-triazole (Sigma), which suppresses the basal level of histidine biosynthesis due to the activity of the FUS1 promoter.
A number of genes for biosynthetic enzymes have been mutated to allow selection of the corresponding marker on a plasmid transformed into the yeast strain. The genomic HIS3 gene, coding for an enzyme essential for the biosynthesis of histidine, has been disrupted by an insertion. The wild-type HIS3 gene has been placed under the control of the pheromone-responsive FUS1 promoter; as a result activation of CXCR4 enables cells to grow in media lacking histidine. To reduce false positives due to any basal activity of FUS1-HIS3,3-amino-1,2,4-triazole, an inhibitor of the enzyme coded by HIS3, is present at low levels in the media during agonist selection. […] Furthermore, the CXCR4 antagonist AMD3100 (34) inhibited YAS2 colony formation (data not shown) and β-galactosidase activity in response to SDF-1α (FIG. 2C).
Target sequence in this assay (P61073 whole entry): as above

For series [6] the following is noted: references (55), (56); cited from earlier work.
For series [7], the system named is CXCR4. Put plainly: β-galactosidase assay in yeast expressing CXCR4 (FUS1-lacZ reporter). In kind it is cell-based, human. The conditions noted are these: yeast lacking CXCR4; data not shown. The source says: The initial S. cerevisiae strain was CY12946 (MATα FUS1p-HIS3 GPA1Gαi2(5) canI farIΔI442 his3 leu2 sst2Δ2 ste14::trp1::LYS2 ste3Δ1156 tbt1-1 trp1 ura3) (23). Except for the specific chimeric Ga subunit expressed, CY12946 is genetically similar to CY1141, reported in Klein et al. (18), with two differences. First, the two strains express different Gα subunits. Specifically, CY12946 expresses a chimeric Gα subunit (GPA1Gαi2(5)) in which the C-terminal 5 amino acids of the yeast Ga subunit, GPA1, are replaced by the C-terminal 5 residues of Gαi2. In contrast, as described by Klein et al. (18), CY1141 expresses a chimeric Ga subunit (GPA1(41)Gαi2) in which the N-terminal 33 residues of Gαi2 are replaced by the 41 N-terminal residues of GPA1. We have used CY12946 in the current report because GPA1Gαi2(5) is more efficient than GPA1(41)Gαi2 in coupling CXCR4 to the pheromone response pathway. The use of GPA1Gαi2(5) necessitated deletion of SST2, which down-regulates the pheromone response pathway by accelerating the GTPase activity of GPA1. Thus, the second difference between CY12946 and CY1141 is the presence of an sst2 deletion allele in CY12946. All plasmids were 2μ-derived and contained a REP3 element for autonomous replication in S. cerevisiae and AmPR for selection in Escherichia coli. […]

Series [8] concerns the target T1, CXCR4. The conditions noted are these: reference (31); cited from earlier work.
Target sequence in this assay (P61073 whole entry, species assumed): as the sequence (P61073 whole entry) above

Where a SMILES comes first, the peptide text is derived from it. Some results are limits rather than exact numbers.

As a reminder, the EC50 is the concentration that produces a half-maximal response. Turning to `CC(C)C[C@H](NC(=O)[C@H](CO)NC(=O)[C@H](C)N)C(=O)N[C@@H](Cc1c[nH]c2ccccc12)C(=O)N[C@@H](CC(C)C)C(=O)N[C@@H](CO)C(=O)N[C@@H](Cc1ccc(O)cc1)C(=O)N[C@@H](CCCNC(=N)N)C(=O)N[C@@H](CS)C(=O)N1CCC[C@H]1C(=O)N[C@@H](CS)C(=O)N[C@@H](CCCNC(=N)N)C(=O)N[C@@H](Cc1ccccc1)C(=O)N[C@@H](Cc1ccccc1)C(=O)N[C@@H](CCC(=O)O)C(=O)N[C@@H](CO)C(=O)N[C@@H](Cc1c[nH]cn1)C(=O)O` [ASLW] (H-ASLWLSYRCPCRFFESH-OH; N-terminus and C-terminus assumed), in series [1] (CCRF-CEM cells), the “agonist character in chemotaxis (chemotactic index relative to SDF-Fc)” value was “superagonist activity”. Besides, the EC50 in series [1] (CCRF-CEM cells (FIG. 4A, 4B), read-out: apparent EC50, chemotaxis) was more than 60 µM. In addition, the “chemotactic activity combined with SDF-Fc” value in series [1] (CCRF-CEM cells (FIG. 4D)) is given as “approximately additive”. Moreover, the “chemotaxis in the presence of the two peptide agonists ASLW and RSVM” value in series [1] (CCRF-CEM cells (FIG. 4E)) is listed as “additive”. In series [1] (CCRF-CEM cells, AMD3100 up to 100 μg/ml (~115 μM)), the “effect of AMD3100 on chemotactic activity of the agonist” value is recorded as “Strong resistance to inhibition”. Also, the “effect of T140 on chemotactic activity of the agonist” value in series [1] (CCRF-CEM cells, T140 up to concentrations comparable to the agonists) is listed as “does not inhibit”. In addition, the “effect of antibody 44717.111 on chemotactic activity of the agonist” value in series [1] (CCRF-CEM cells, up to 50 μg/ml for the peptides, ten-fold lower for SDF-Fc) is given as “neither RSVM- nor ASLW-mediated chemotactic activity is significantly affected”. Also, in series [2] (90 min incubation, SDF-Fc 1 μM, RSVM 200 μM, ASLW 100 μM (FIG. 8A-C)), the “effect on CXCR4 levels on the cell surface” value is “only aminor decrease”. Moreover, the “concentration dependence of the effect on CXCR4 surface levels” value in series [2] (FIG. 8D, 8E) is on record as “No significant concentration-dependent response”. In series [3] (peptide-expressing yeast clones), the “resistance of β-galactosidase activity to AMD3100” value is “resistance to AMD3100”. Besides, the “β-galactosidase activity on endogenous expression of the peptide” value in series [3] (yeast strains with or without CXCR4 (FIG. 3)) is given as “significant increase of β-galactosidase activity only in the strain that co-expresses CXCR4”.
Consider `c1cc(CN2CCCNCCNCCCNCC2)ccc1CN1CCCNCCNCCCNCC1` [AMD3100, reference compound], for which the “interaction between T-20 and AMD3100” value in series [4] is listed as “strong in vitro synergy”. For the same molecule, in series [5] (in response to SDF-1α, data not shown), the YAS2 colony formation result is given as “inhibited”. The “toxicity / adverse effects in clinical trials” value in series [6] was “cardiac toxicity”. Moreover, the “effect on basal level of the pheromone-responsive Fus1 promoter” value in series [3] (AMD3100 1 μM (FIG. 2C)) is “does not effect the basal level”. Also, the “inhibition of β-galactosidase activity in response to SDF-1α” value in series [3] (AMD3100 1 μM, SDF-1α 100 nM (FIG. 2C)) is “inhibited”.
Regarding SDF-1α, the “growth in the absence of histidine” value in series [5] (endogenously expressed SDF-1α, strain expressing CXCR4 (FIG. 2A)) is given as “allows the strain expressing CXCR4 to grow in the absence of this amino acid”. In series [7], the “response of strain without the receptor (YAS 1)” value is listed as “does not respond”. Moreover, the EC50 in series [8] is 0.001 to 0.01 µM. Also, in series [3] (HIS3-/CXCR4+ yeast with FUS1-lacZ, SDF-1α 100 nM, D-SDF-1α 100 nM, 14-mer 1 μM (FIG. 2B)), the “induction of β-galactosidase activity” value is recorded as “induces an increase of β-galactosidase activity”.
